Assay [1] has as its system p53-Lys382-acetylation in U2OS cells. The assay can be described thus: p53 acetylation after ultraviolet exposure, western blot. The format is cell-based. The note with it: 1 h pretreatment, 20 J cm^-2 UV, further 6 h. The procedure: U2OS cells (ATCC accession no. HTB-96) were seeded and cultured until they reached 90% confluency. […] Cells were incubated for an additional 6 h in the presence of the inhibitor and then lysed in IPLS (50 mM Tris/HCl, 150 mM NaCl; 0.5 mM EDTA; 0.5% (v/v) NP-40; 1 × Complete Protease Inhibitors (Roche), pH 8.0) and resuspended in 1 × Laemmli Buffer. Samples were then separated on SDS–PAGE, transferred to a nitrocellulose membrane (Bio-Rad), blocked with non-fat dry milk (Roth, 5% (w/v), TBS, 0.1% (v/v) Tween 20) and probed with anti-acetyl-p53 K382 (Cell Signaling, #2522), anti-p53 DO.1 (Santa Cruz Biotechnology, sc-126) and anti-vinculin (Cell Signaling, #4650) as a loading control. Uncropped blots are shown in the Supplementary Fig. 10.
For orientation: In western blotting, separated proteins are transferred to a membrane and probed.

A further assay has as its system BubR1 in HeLa cells. Nature of the assay: abundance of BubR1, western blot. The format is cell-based. The method, then: Cells were washed with PBS, lysed in IPLS (50 mM Tris/HCl, 150 mM NaCl, 0.5 mM EDTA, 0.5% (v/v) NP-40, pH 7.5, supplemented with Complete protease inhibitors (Roche)). Samples were pelleted and resuspended in 1 × SDS–PAGE sample buffer and heated (95 °C, 5 min). Cell samples were separated using SDS–PAGE (10% (w/v) polyacrylamide), transferred to a nitrocellulose membrane (Bio-Rad), blocked with non-fat dry milk (Roth, 5% (w/v), TBS, 0.1% (v/v) Tween 20) and probed with the anti-BubR1 (1:5,000, BD Biosciences, 612502) and anti-tubulin (1:5,000, Sigma-Aldrich, T5168) as a loading control. Uncropped blots are shown in the Supplementary Fig. 8.

In assay [2] the test system is α-tubulin acetylation in HeLa cells. Nature of the assay: tubulin acetylation, western blot. It is filed as cell-based. The settings on record: various concentrations, 5 h. An excerpt: Cell samples were then separated using SDS–PAGE (12.5% (w/v) polyacrylamide), transferred to an activated nitrocellulose membrane (Bio-Rad), blocked with non-fat dry milk (Roth, 5% (w/v), TBS, 0.1% (v/v) Tween 20) and probed with an anti-acetyl-α-tubulin antibody (1:1,000, Sigma-Aldrich, T6793) and an anti-GAPDH antibody (1:2,000–1:5,000, Sigma-Aldrich, G9545) as a loading control (Fusion SL, peqlab). An uncropped blot is shown in Supplementary Fig. 8.

In assay [3] the test system is acetylation of the microtubule network in HeLa cells. The assay can be described thus: immunofluorescence microscopy of acetylated microtubule network. It is filed as cell-based. The note with it: 4 h. An excerpt:
Cells were then stained with an anti-acetyl-α-tubulin antibody (Sigma-Aldrich, T6793) and then probed with a secondary Alexa 546 conjugated anti-mouse-antibody (Invitrogen). Nuclei were counterstained with DAPI (4',6-diamidino-2-phenylindole). Coverslips were mounted with FluoroMount (Sigma-Aldrich) and sealed with DPX Mountant (Sigma-Aldrich). Images of the mounted samples were acquired on a Leica DM500 microscope equipped with a Leica DFC 395 FX camera and HBO 100 W lamp[40]. The microscope was run with the Leica Application Suite 4.4.0 software. Chroma UV filter set (No. C40888) and Leica N2.1 filter set (No. 513832) were used for DAPI and Alexa 546 signal acquisition, respectively, with a HCX FL Fluotar 40x/0.75 (dry) objective. Further details about the equipment and the settings that were used to acquire the images are found in the Supplementary Methods section. Unprocessed images are found in Supplementary Fig. 9. […]
Immunocytochemistry equipment and settings. The signal of Alexa 546 and DAPI of the same region were acquired with constant illumination parameters as grayscale 8-bit 600 dpi tiff files (1600u 1200 pixels). Alexa 546 was acquired after 639.1 ms with a gamma factor of 0.65 without multiplying. The gain was set to 1. DAPI-stained images were acquired after about 20 ms with the same parameters as the one for Alexa 546 image acquisition. The temperature in the microscope room was kept at RT. Representative regions of each samples were processed with Adobe Photoshop CS2 to generate images in RGB mode by copying the appropriate original greyscale images to the blue (nuclei, DAPI) and the red (acetylated D-tubulin signal, Alexa 546) channel, respectively. As adjustment, a minimal background subtraction was applied on all images during processing in the same manner. The resolution was changed from 600 dpi (source images) to 450 dpi without resampling (Fig. 7 of the main article). LUT (CLUT) of grayscale images of the acetylated D-tubulin signal and of the DAPI signal are shown in Supplementary Fig. 8. […]

The target in another assay is T1, human Sirt6 (Homo sapiens, UniProt Q8N6T7).
T1 construct: human Sirt6_13–308 (Uniprot: Q8N6T7); made in house
Nature of the assay: HPLC-based assay, non-labelled myristoyl-lysine peptide. It is filed as biochemical. The note with it: myristoyl-lysine substrate.

“Also recorded” adds a separate entry of the source.

T1 sequence (Q8N6T7 13-308): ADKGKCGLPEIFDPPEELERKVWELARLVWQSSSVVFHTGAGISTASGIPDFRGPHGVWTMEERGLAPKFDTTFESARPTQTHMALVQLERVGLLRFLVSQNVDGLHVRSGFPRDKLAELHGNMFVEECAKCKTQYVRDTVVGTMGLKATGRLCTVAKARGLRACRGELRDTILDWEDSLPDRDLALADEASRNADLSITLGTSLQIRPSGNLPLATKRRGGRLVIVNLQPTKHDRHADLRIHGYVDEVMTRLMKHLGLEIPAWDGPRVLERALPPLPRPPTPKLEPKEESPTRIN

As a reminder, the inhibition is the change of the read-out against control, counted positive when it falls. For `Cc1cc(C)nc(SCC(=O)Nc2ncc(Cc3cccc4ccccc34)s2)n1` [SirReal2], the “acetylation of p53 (Lys382) after ultraviolet exposure” value in assay [1] is recorded as “does not affect; also recorded: did not observe an increase; also recorded: does not alter”. Besides, the “abundance of BubR1” value is “significantly reduced” in the assay with BubR1 in HeLa cells (50 μM, in relation to DMSO control) and “reduction; also recorded: dose-dependent depletion” in the assay with BubR1 in HeLa cells (various concentrations, 16 h). The “level of α-tubulin acetylation” value in assay [2] was “tubulin hyperacetylation; also recorded: significant increase”. The “acetylation level of the microtubule network” value in assay [3] (20 μM) is recorded as “induces hyperacetylation; also recorded: partial increase; also recorded: hyperacetylation of the microtubule network”; in assay [3] (50 μM), “induces hyperacetylation”. Moreover, the inhibition at 200 µM against human Sirt6 amounted to 19%.

For the origin of these results see article PMC4339887, “Selective Sirt2 inhibition by ligand-induced rearrangement of the active site” (Nature Communications, 2015).
